The values below come from US11479533B2, “Inhibitors of Rho associated coiled-coil containing protein kinase” (KADMON CORPORATION, LLC, priority 2017, dated 2022).

Molecules are shown by their SMILES.

In assay [1] the test system is ACTA2-promoter-driven-luciferase in NIH3T3 cells. Briefly: NIH3T3 Acta2-promoter driven-luciferase assay. Format: cell-based. The settings on record: Mus musculus, plus TGFβ1, 24 hr, read-out: NIH3T3, Acta2-luc, IC50. How it is done: NIH3T3 cells Acta2-promoter driven-luciferase assay: A NIH3T3 cell line stably expressing a luciferase reporter driven by the human ACTA2 gene promoter (−1000-1 bp) was established (NIH3T3-Acta2-luciferase). The cells were plated to confluence and treated with the test compounds plus TGFβ1 for 24 hr. Cells were then lysed and luciferase activity was measured using the LightSwitch luciferase kit from Active Motif.
ROCK inhibitors can be effectively rank ordered by ACTA2-promoter-driven-luciferase reporter cell assay. NIH3T3 cells stably expressing ACTA2-promoter-driven-luciferase were applied to measure ROCK compounds functional IC50's in cells. Cells were plated in 96 well plates to confluence and treated with 9 points serial dilution of compounds in combination with TGFβ1 for 24 hr. Luciferase activities were measured and compound's IC50's were calculated using the nonlinear regression curve fit function of the GraphPad Prism software. Compounds of the invention gave in cell IC50's under 200 nM, see FIG. 1c.

The subject of assay [2] is ppMlc (T18/S19) levels in A7R5 cells. Briefly: A7R5 in-cell ELISA assay (ppMlc). To be noted: Rattus norvegicus, A7R5, A7R5 cells, Table 2; read-out: pMLC IC50 (nM) A7R5. The class given is cell-based, rat. The method, then:
Determination of compounds ROCK inhibitory activity in A7R5 cells: rat aortic smooth muscle cell line A7R5 cells were maintained and treated in DMEM medium with 10% of fetal bovine serum. Cells were seeded with density of 5,000 cells/well in 96-well plates for 24 hours and subsequently treated 90 min with testing compounds. Cells were then fixed and processed according to the In-Cell ELISA Colorimetric Detection Kit manual (Thermo Scientific).
A7R5 cells were treated with 9 points 2 fold serial dilution of compounds and ppMlc (T18/S19) levels were determined in order to calculate the cellular IC50s of the compounds.
An A7R5 in-cell ELISA assay was performed to determine ROCK inhibition of test articles. A7R5 cells were treated with 9 points 2-fold serial dilution of compounds and ppMlc (T18/S19) levels were determined to calculate cellular IC50 values of the compounds. […] A7R5 cells were treated with 9 points 2-fold serial dilution of compounds and ppMlc (T18/S19) levels were determined to calculate cellular IC50 values of the compounds using the nonlinear regression curve fit function of the GraphPad Prism software.
Background: An ELISA detects its analyte on a solid surface through an enzyme-linked reagent.

The target in assay [3] is recombinant ROCK2 (amino acids 1-552) (Homo sapiens (Human), UniProt O75116). Briefly: Z'-lyte kinase assay, ROCK2. The class given is biochemical. How it is done:
Determination of compounds ROCK inhibitory activity in vitro (Z'lyte assay): recombinant ROCK1 (amino acids 1-535) and ROCK2 (amino acids 1-552) proteins were purchased from ThermoFisher Scientific. Compounds activities were measured by Z'-lyte kinase kit (ThermoFisher Scientific) and IC50s were calculated.
Compounds activities were measured by Z'-lyte kinase kit (ThermoFisher Scientific). […] IC50s were calculated using the GraphPad Prism software with kinase activities data that were collected from 9 points serial dilution of compounds treatment. The ROCK inhibition in A7R5 cells and NIH3T3 (Acta2-Luc) cells was performed as described above.
The percent inhibition rate was calculated by normalizing the kinase activity value obtained with compound treatment against DMSO control value and then applied to the equation, […]. IC50's were calculated using the nonlinear regression curve fit function of the GraphPad Prism software with kinase activities data measured with 9 points 2-fold serial dilution of compounds treatment.

Sequence of recombinant ROCK2 (amino acids 1-552) (O75116 1-552): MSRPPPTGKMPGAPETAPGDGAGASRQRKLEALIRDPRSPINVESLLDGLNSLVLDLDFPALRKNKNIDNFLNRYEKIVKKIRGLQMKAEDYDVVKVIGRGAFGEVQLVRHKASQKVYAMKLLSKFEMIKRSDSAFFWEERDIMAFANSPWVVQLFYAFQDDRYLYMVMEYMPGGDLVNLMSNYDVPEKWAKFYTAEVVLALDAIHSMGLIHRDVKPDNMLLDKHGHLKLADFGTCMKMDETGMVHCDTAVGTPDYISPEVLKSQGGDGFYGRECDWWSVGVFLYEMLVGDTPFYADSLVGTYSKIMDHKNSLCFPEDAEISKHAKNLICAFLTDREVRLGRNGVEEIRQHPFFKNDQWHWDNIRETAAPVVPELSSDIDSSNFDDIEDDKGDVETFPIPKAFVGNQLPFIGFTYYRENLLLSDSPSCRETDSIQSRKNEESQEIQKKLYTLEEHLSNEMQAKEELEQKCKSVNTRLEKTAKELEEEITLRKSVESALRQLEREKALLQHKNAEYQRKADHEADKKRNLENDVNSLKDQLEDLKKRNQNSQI

For orientation: IC50 means the concentration needed to halve the response being measured. Turning to `CNC(C(=O)Nc1ccc(-c2cn[nH]c2)cc1)c1cccc(N(C)C)c1` (stereo not drawn) [Example 28, N-(4-(1H-pyrazol-4-yl)phenyl)-2-(3-(dimethylamino)phenyl)-2-(methylamino)acetamide], the 50% inhibitory concentration (IC50) came out at 335 nM in assay [1], 947 nM in assay [2] and 82 nM in assay [3].
In the same order, the values of `COCC1(NC(C(=O)Nc2ccc(-c3cn[nH]c3)cc2)c2cccc(OC)c2)CC1` (stereo not drawn) [Example 53, N-(4-(1H-pyrazol-4-yl)phenyl)-2-((1-(methoxymethyl)cyclopropyl)amino)-2-(3-methoxyphenyl)acetamide] are 1260 nM, 759 nM and 31 nM.
In the case of `COc1cccc(C(NCc2cn[nH]c2)C(=O)Nc2ccc(-c3cn[nH]c3)cc2)c1` (stereo not drawn) [Example 45, 2-(((1H-pyrazol-4-yl)methyl)amino)-N-(4-(1H-pyrazol-4-yl)phenyl)-2-(3-methoxyphenyl)acetamide], the results for the IC50 in assay [1], in assay [2] and in assay [3] were 1460 nM, 1360 nM and 53 nM, respectively.
As to `CCN(CCOC)C(C(=O)Nc1ccc(-c2cn[nH]c2)cc1)c1cccc(OC)c1` (stereo not drawn) [Example 46, N-(4-(1H-pyrazol-4-yl)phenyl)-2-(ethyl(2-methoxyethyl)amino)-2-(3-methoxyphenyl)acetamide], the IC50 in assay [1] worked out at 1200 nM; in assay [2], 1880 nM; in assay [3], 107 nM.
`CNC(C(=O)Nc1ccc(-c2cn[nH]c2)cc1)c1ccc(C(=O)OC)cc1` (stereo not drawn) [Example 34, methyl 4-(2-((4-(1H-pyrazol-4-yl)phenyl)amino)-1-(methylamino)-2-oxoethyl)benzoate]: the IC50 was above 5000 nM in assay [1], above 5000 nM in assay [2] and 310 nM in assay [3].
In the case of `CNC(C(=O)Nc1ccc(-c2cn[nH]c2)cc1)c1ccc(C)cc1` (stereo not drawn) [Example 21, N-(4-(1H-pyrazol-4-yl)phenyl)-2-(methylamino)-2-(p-tolyl)acetamide], the IC50 was 66 nM in assay [1], 47 nM in assay [2] and 3.1 nM in assay [3].
Turning to `CNC(C(=O)Nc1ccc(-c2cn[nH]c2)cc1)c1ccc2nc(C)[nH]c2c1` (stereo not drawn) [Example 35, N-(4-(1H-pyrazol-4-yl)phenyl)-2-(2-methyl-1H-benzo[d]imidazol-6-yl)-2-(methylamino)acetamide], the IC50 in assay [1] was above 5000 nM; in assay [2] it was above 5000 nM; in assay [3], 486 nM.
Regarding `CN[C@H](C(=O)Nc1ccc(-c2cn[nH]c2)cc1)c1cccc(OC)c1` [Example 4, (S)—N-(4-(1H-pyrazol-4-yl)phenyl)-2-(3-methoxyphenyl)-2-(methylamino)acetamide], the concentration for half-maximal inhibition (IC50) in assay [1] is 110 nM; in assay [2] it was 108 nM; in assay [3] it was 3 nM.
Take `CN[C@@H](C(=O)Nc1ccc(-c2cn[nH]c2)cc1)c1cccc(OC)c1` [Example 3, (R)—N-(4-(1H-pyrazol-4-yl)phenyl)-2-(3-methoxyphenyl)-2-(methylamino)acetamide]: the IC50 in assay [1] amounted to 157 nM; in assay [2], 222 nM; in assay [3], 12 nM.
In the same order, the values of `CN[C@H](C(=O)Nc1cc(F)c(-c2cn[nH]c2)cc1OCCN(C)C)c1cccc(OC)c1` [Example 73, (S)—N-(2-(2-(dimethylamino)ethoxy)-5-fluoro-4-(1H-pyrazol-4-yl)phenyl)-2-(3-methoxyphenyl)-2-(methylamino)acetamide] are 122 nM, 15 nM and 1.6 nM.
For the compound `CCNC(C(=O)Nc1ccc(-c2cn[nH]c2)cc1)c1ccc(OC)cc1` (stereo not drawn) [Example 10, N-(4-(1H-pyrazol-4-yl)phenyl)-2-(ethylamino)-2-(4-methoxyphenyl)acetamide], the results for the IC50 in assay [1], in assay [2] and in assay [3] were 1280 nM, 255 nM and 21 nM, respectively.
For `CNC(C(=O)Nc1cc(F)c(-c2cn[nH]c2)cc1OCCCN(C)C)c1cccc(OC)c1` (stereo not drawn) [Example 70, N-(2-(3-(dimethylamino)propoxy)-5-fluoro-4-(1H-pyrazol-4-yl)phenyl)-2-(3-methoxyphenyl)-2-(methylamino)acetamide], the IC50 turned out to be 134 nM in assay [2] and 7.7 nM in assay [3].
Take `CNC(C(=O)Nc1ccc(-c2cn[nH]c2)cc1)c1ccc(C(=O)O)cc1` (stereo not drawn) [Example 68, 4-(2-((4-(1H-pyrazol-4-yl)phenyl)amino)-1-(methylamino)-2-oxoethyl)benzoic acid]: the IC50 in assay [1] was above 5000 nM; in assay [2], above 5000 nM; in assay [3] it was 451 nM.
Regarding `COc1cccc(C(NCCOC(C)C)C(=O)Nc2ccc(-c3cn[nH]c3)cc2)c1` (stereo not drawn) [Example 40, N-(4-(1H-pyrazol-4-yl)phenyl)-2-((2-isopropoxyethyl)amino)-2-(3-methoxyphenyl)acetamide], the IC50 in assay [1] was 826 nM; in assay [2], 632 nM; in assay [3], 45 nM.
Regarding `COCCNC(C(=O)N(C)c1ccc(-c2cn[nH]c2)cc1)c1cccc(OC)c1` (stereo not drawn) [Example 49, N-(4-(1H-pyrazol-4-yl)phenyl)-2-((2-methoxyethyl)amino)-2-(3-methoxyphenyl)-N-methylacetamide], the half-maximal inhibitory concentration (IC50) in assay [3] was above 1000 nM.
Regarding `CCNC(C(=O)Nc1ccc(-c2cn[nH]c2)cc1)c1ccc(C)cc1` (stereo not drawn) [Example 11, N-(4-(1H-pyrazol-4-yl)phenyl)-2-(ethylamino)-2-(p-tolyl)acetamide], the results for the IC50 in assay [1], in assay [2] and in assay [3] were 106 nM, 69 nM and 4 nM, respectively.
In the same order, the values of `CCNC(C(=O)Nc1ccc(-c2cn[nH]c2)cc1)c1cccc(Cl)c1` (stereo not drawn) [Example 16, N-(4-(1H-pyrazol-4-yl)phenyl)-2-(3-chlorophenyl)-2-(ethylamino)acetamide] are 376 nM, 292 nM and 3.5 nM.
`COc1cccc(C(NCC(N)=O)C(=O)Nc2ccc(-c3cn[nH]c3)cc2)c1` (stereo not drawn) [Example 41, N-(4-(1H-pyrazol-4-yl)phenyl)-2-((2-amino-2-oxoethyl)amino)-2-(3-methoxyphenyl)acetamide]: the IC50 in assay [1] is above 5000 nM; in assay [2] it was 1250 nM; in assay [3], 12 nM.
Consider `COc1cccc(C2C(=O)N(c3ccc(-c4cn[nH]c4)cc3)CCCN2CC2CC2)c1` (stereo not drawn) [Example 74, 1-(4-(1H-pyrazol-4-yl)phenyl)-4-(cyclopropylmethyl)-3-(3-methoxyphenyl)-1,4-diazepan-2-one], for which, in assay [3], the IC50 was above 1000 nM.
Consider `COCC(C)(C)NC(C(=O)Nc1ccc(-c2cn[nH]c2)cc1)c1cccc(OC)c1` (stereo not drawn) [Example 43, N-(4-(1H-pyrazol-4-yl)phenyl)-2-((1-methoxy-2-methylpropan-2-yl)amino)-2-(3-methoxyphenyl)acetamide], for which the IC50 in assay [2] was found to be 1490 nM; in assay [3] it was 47 nM.
In the same order, the values of `CNCCCNC(C(=O)Nc1ccc(-c2cn[nH]c2)cc1)c1cccc(OC)c1` (stereo not drawn) [Example 42, N-(4-(1H-pyrazol-4-yl)phenyl)-2-(3-methoxyphenyl)-2-((3-(methylamino)-propyl)amino)acetamide] are 359 nM and 6.5 nM.
Consider `COc1cccc(C2C(=O)N(c3ccc(-c4cn[nH]c4)cc3)CCCN2CCN(C)C)c1` (stereo not drawn) [Example 75, 1-(4-(1H-pyrazol-4-yl)phenyl)-4-(2-(dimethylamino)ethyl)-3-(3-methoxyphenyl)-1,4-diazepan-2-one], for which the 50% inhibitory concentration (IC50) in assay [3] was above 1000 nM.
On the same count and under the same terms, to `CNCCN1CCCN(c2ccc(-c3cn[nH]c3)cc2)C(=O)C1c1cccc(OC)c1` (stereo not drawn) [Example 76, 1-(4-(1H-pyrazol-4-yl)phenyl)-3-(3-methoxyphenyl)-4-(2-(methylamino)ethyl)-1,4-diazepan-2-one] belongs 950 nM.
As to `CNC(C(=O)Nc1ccc(-c2cn[nH]c2)cc1)c1ccc(OC)cc1` (stereo not drawn) [Example 9, N-(4-(1H-pyrazol-4-yl)phenyl)-2-(4-methoxyphenyl)-2-(methylamino)acetamide], the IC50 was 355 nM in assay [2] and 15.4 nM in assay [3].
